Test results from US11149046B2, “Antibacterial sideromycins” (Hsiri Therapeutics, Inc., priority 2014, dated 2021).
Values after ≈ are worked out from the molar mass of the structure shown. “Also recorded” adds a separate entry of the source. Like-named read-outs stand apart in the source and are kept apart here.

Key:
[1] = tested on: Pa-Da-1304 CF patient isolate; assay: MIC determination; assay type: cell-based, Pseudomonas aeruginosa
Description: (§1) MIC (minimum inhibition concentration) is given in μM and AD (agar diffusion zones of inhibition are given in mm from Kirby-Bauer Petri dish growth inhibition studies).
We obtained a clinical isolate of Pseudomonas from a cystic fibrosis patient.

[2] = tested on: Acinetobacter; assay: Murine Survival Experiment with Acinetobacter; assay type: in vivo; details: 50 mg/kg IV at +30 min and +4 hr
Description: In vivo data for murine survival with Acinetobacter is shown in Table 9 below and graphically in FIG. 14. In the experiments, 10^8 Acinetobacter was administered IP at time 0 on Day 1, and antibiotic was administered twice IV at +30 min and +4 hr

[3] = tested on: A. baumannii BAA1800; assay: Antibacterial activity of MG-1-189 and sulbactam; details: single agent
[4] = tested on: A. baumannii BAA1797; assay: Antibacterial activity of MG-1-189 and sulbactam; details: single agent
[5] = tested on: P. aeruginosa KW799/wt; assay: MIC determination; assay type: cell-based, Pseudomonas aeruginosa; details: read-out: MIC
Summary of the method: (§2)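 MIC values in μM; agar diffusion (Kirby-Bauer) inhibition zones reported in mm.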

[6] = tested on: Pa4; assay: MIC determination; assay type: cell-based, Pseudomonas aeruginosa; details: Table 5
Summary of the method: as §2

[7] = tested on: Pa6; assay: MIC determination; assay type: cell-based, Pseudomonas aeruginosa; details: Table 5; read-out: MIC
Description: as §1

[8] = tested on: P. aeruginosa KW799/61 (permeability mutant); assay: microbe, parasite or virus in culture; assay type: cell-based, Pseudomonas aeruginosa; details: Table 5
Description: as §1

[9] = tested on: Pseudomonas aeruginosa KW799/wt; assay: Agar diffusion (Kirby-Bauer) assay; assay type: cell-based; details: wild type Pseudomonas; FIG. 8, 9, 12
Description: (§3) Table 3 that was included in the first Example 4 section provides antibacterial data for the first synthetic sideromycins we prepared and studied. The second Example 4 section elaborated and expanded on that data with inclusion of representative antibacterial data in the text and associated pictures of Petri dish assays. MIC (minimum inhibition concentration) is given in μM and AD (agar diffusion zones of inhibition are given in mm from Kirby-Bauer Petri dish growth inhibition studies).

[10] = tested on: Acinetobacter baumannii ATCC 17961; assay: Agar diffusion (Kirby-Bauer) assay, with and without hydrogel; assay type: cell-based; details: Acinetobacter; FIG. 8, 9, 10
Description: as §3
We investigated whether the sideromycin absorbed in the gel be able to diffuse out of the gel and into the agar to effect antibacterial growth. As a control, the sideromycin alone, without gel, was added in a separate 9 mm well, as usual.
The second question was whether the sideromycin continue to be released and be able to effect bacterial growth inhibition over extended periods. Thus, additional identical agar plates were prepared and stored at 4° C. for 24, 48 and 72 hours to allow diffusion of the sideromycin (control and gel forms) into the agar before allowing the bacteria to grow in an incubator. Then after each time period, the Petri dishes were incubated at 37° C. for 20 hours to promote bacteria growth in the agar. […] The study has been extended to as long as 168 hours (one week) with retention of antibiotic effectiveness.

[11] = tested on: A. baumannii ATCC 17961; assay: MIC determination; assay type: cell-based, Acinetobacter baumannii; details: read-out: MIC
Summary of the method: as §2

[12] = tested on: Pseudomonas aeruginosa 01 (Pa01); assay: MIC determination; assay type: cell-based; details: read-out: MIC
Summary of the method: as §2

[13] = tested on: A. baumannii BAA1710; assay: Antibacterial activity of MG-1-189 and sulbactam; details: single agent
[14] = tested on: Pseudomonas aeruginosa KW799/61; assay type: cell-based; details: outer membrane permeable mutant; FIG. 9 center panel
Description: as §1

[15] = tested on: A. baumannii BAA1793; assay: Antibacterial activity of MG-1-189 and sulbactam; details: single agent

N[C@@H](C(=O)N[C@@H]1C(=O)N2C(C(=O)O)=C(Cl)CC[C@H]12)c1ccccc1 [loracarbef, reference compound]
MIC ([1]; Table 5): >200 µM | susceptibility of the clinical isolate (in words) ([1]; preliminary tests): resistant | murine survival (surviving mice) ([2]; D 1, 10^8 Acinetobacter IP): 6 | murine survival (surviving mice) ([2]; D 2): 2 | murine survival (surviving mice) ([2]; D 3): 2 | murine survival (surviving mice) ([2]; D 4): 2 | murine survival (surviving mice) ([2]; D 5): 2 | murine survival (surviving mice) ([2]; D 6): 2 | murine survival (surviving mice) ([2]; D 7): 2 | Antibacterial activity (MIC) [3]: >25 µM | Antibacterial activity (MIC) [4]: >25 µM | MIC ([5]; Table 5): >200 µM | MIC ([5]; Table 7): >200 µM | MIC [6]: >200 µM | MIC [7]: >200 µM | MIC [8]: 50 µM (≈ 17.5 µg/mL) | zones of inhibition (in words) [9]: inactive | zones of inhibition (in words) [10]: inactive; also recorded: no inhibition | MIC ([11]; Table 5, head prints A. baumannii only): >200 µM | MIC ([11]; Table 7): >200 µM | MIC ([12]; Table 5): >200 µM | MIC ([12]; Table 7): >200 µM | Antibacterial activity (MIC) [13]: >25 µM | zones of inhibition (in words) [14]: very small zone of inhibition | Antibacterial activity (MIC) [15]: >25 µM
